Test results: US8791123B2, “Substituted pyrazolo[1,5-a]pyrimidine compounds as Trk kinase inhibitors” (Array Biopharma, Inc., priority 2009, dated 2014)
Like-named read-outs stand apart in the source and are kept apart here.

Legend:
Type in all cases: biochemical
[1] = molecular target: GST-tagged human Jak1 kinase domain (Homo sapiens (Human), UniProt P23458); test: Jak1 Inhibition Assay (Omnia kinase assay); conditions: Table 2; 500 μM ATP
Description: (§1) The assays described in Examples C, D, E and F for the determination of JAK1, JAK2, JAK3 and Tyk2 kinase activity, respectively, utilized the Omnia® Kinase fluorescence peptide substrate-based technology (Invitrogen). […] The reactions were therefore read at excitation 360 nm and emission was measured at 485 nm every 50 seconds for 45 minutes using a PerkinElmer EnVision Multilabel Plate Reader.
(§2) The final buffer conditions for each of the JAK1, JAK2, JAK3 and Tyk2 assays were as follows: 25 mM HEPES, pH 7.4, 10 mM MgCl2, 0.01% Triton X-100 and 1 mM DTT.
(§3) Compounds were prepared at 50× the final concentration in DMSO by conducting 3-fold serial dilutions from a 500-μM or 1000-μM intermediate dilution to give a 10-point dosing curve having a high dose of 10 or 20 μM. Two-μL aliquots of these were transferred to a fresh plate for a ten-fold intermediate dilution with assay buffer. Five-μL aliquots of the diluted compounds were then transferred to 20-μL of assay mixtures described in Examples C, D, E and F for a final concentration of DMSO of 2%. A standard or reference compound was typically included on each assay plate to validate that plate. For each plate, percent of control (POC) values were calculated for each well according to the following equation:
(§4) [formula] • where • Xmax=Average Uninhibited Controls • Xmin=Average Background IC50's were estimated from the POC's using a standard 4-parameter logistic model:
(§5) [formula] • where • A=Minimum Y (Bottom Asymptote) • B=Maximum Y (Top Asymptote) • C=EC50 • D=Slope Factor • X=Compound Concentration (nM) • Y=POC
(§6) The IC50 is defined as the concentration of inhibitor at which the POC equals 50 for the fitted curve.
Compounds of Formula I were screened for their ability to inhibit Jak1 using the general enzyme inhibition assay method, in which the assay mixture contained 500 μM ATP, 8 μM Omnia® Y12 peptide (Catalog # IVGN KPZ3121C; Invitrogen Corporation, Carlsbad, Calif.) and 5 nM Jak1 in a total volume of 20 μL. […] (catalog # IVGN PV4774).

[2] = molecular target: GST-tagged human Jak3 kinase domain (Homo sapiens (Human), UniProt P52333); test: Jak3 Inhibition Assay (Omnia kinase assay); conditions: Table 2; 500 μM ATP
Description: as §1, §2, §3, §4, §5, §6
Compounds of Formula I were screened for their ability to inhibit Jak3 using the general enzyme inhibition assay method, in which the assay mixture contained 500 μM ATP, 10 μM Omnia® Y7 peptide (Catalog # IVGN KNZ3071C, Invitrogen Corporation, Carlsbad, Calif.) and 1.5 nM Jak3 in a total volume of 20 μL. GST-tagged human Jak3 kinase domain comprising amino acids 781-1124 was purchased from Invitrogen Corporation, Carlsbad, Calif. (catalog # IVGN PV3855).

Human Jak2 kinase domain = Human Jak2 kinase domain (Homo sapiens (Human), UniProt O60674); test: Jak2 Inhibition Assay (Omnia kinase assay); conditions: 500 μM ATP
[3] = molecular target: TrkA (histidine-tagged recombinant human TrkA, cytoplasmic domain) (Homo sapiens (Human), UniProt P04629); test: TrkA ELISA Assay
Outline: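 ELISA read-out: a peroxidase-linked anti-phosphotyrosine antibody (PY20, 0.2 μg/mL) with TMB substrate, absorbance at 450 nm after acid stop. The plate-bound substrate was poly(Glu,Ala,Tyr; 6:3:1) at 0.025 mg/mL, phosphorylated by the recombinant His-tagged human TrkA cytoplasmic domain in the presence of inhibitors.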

Human Tyk2 kinase domain = Human Tyk2 kinase domain (Homo sapiens (Human), UniProt P29597); test: Tyk2 Inhibition Assay (Omnia kinase assay); conditions: Table 2; 500 μM ATP
Description: as §1, §2, §3, §4, §5, §6
Compounds of Formula I were screened for their ability to inhibit Tyk2 using the general enzyme inhibition assay method, in which the assay mixture contained 500 μM ATP, 8 μM Omnia® Y12 peptide (Catalog # IVGN KPZ3121C; Invitrogen Corporation, Carlsbad, Calif.) and 1 nM Tyk2 in a total volume of 20 μL. Human Tyk2 kinase domain, comprising amino acids 886 to 1187 with 10 additional histidine residues (histidine tag) on the carboxy terminus, was expressed and purified from bacculovirus in-house at Array BioPharma Inc. (Boulder, Colo.). The histidine tag was cleaved after purification using standard conditions.

[4] = Table 1, >1000 nM when >50% inhibition not observed at 1000 nM, read-out: Jak2 Enzyme IC50
[5] = Table 1, ELISA, 500 μM ATP, read-out: TrkA Enzyme IC50

Human Tyk2 kinase domain, sequence (P29597 886-1187): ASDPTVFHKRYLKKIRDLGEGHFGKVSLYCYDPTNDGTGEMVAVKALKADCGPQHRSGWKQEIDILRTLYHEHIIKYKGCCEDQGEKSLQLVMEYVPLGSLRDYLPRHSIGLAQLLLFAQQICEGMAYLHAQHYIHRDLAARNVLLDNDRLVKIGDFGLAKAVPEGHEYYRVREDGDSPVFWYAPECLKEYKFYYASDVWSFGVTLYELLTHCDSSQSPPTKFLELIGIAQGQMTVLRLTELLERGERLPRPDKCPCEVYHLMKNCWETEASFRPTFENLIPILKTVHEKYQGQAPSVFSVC
GST-tagged human Jak1 kinase domain, sequence (P23458 866-1154): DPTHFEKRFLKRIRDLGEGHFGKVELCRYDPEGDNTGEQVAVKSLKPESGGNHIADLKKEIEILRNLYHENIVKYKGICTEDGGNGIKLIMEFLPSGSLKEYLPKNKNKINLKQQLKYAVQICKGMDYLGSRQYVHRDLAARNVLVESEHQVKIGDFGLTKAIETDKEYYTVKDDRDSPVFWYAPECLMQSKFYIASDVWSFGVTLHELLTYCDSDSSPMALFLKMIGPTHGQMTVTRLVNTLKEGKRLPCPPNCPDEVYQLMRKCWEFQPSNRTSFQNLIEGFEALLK
GST-tagged human Jak3 kinase domain, sequence (P52333 781-1124): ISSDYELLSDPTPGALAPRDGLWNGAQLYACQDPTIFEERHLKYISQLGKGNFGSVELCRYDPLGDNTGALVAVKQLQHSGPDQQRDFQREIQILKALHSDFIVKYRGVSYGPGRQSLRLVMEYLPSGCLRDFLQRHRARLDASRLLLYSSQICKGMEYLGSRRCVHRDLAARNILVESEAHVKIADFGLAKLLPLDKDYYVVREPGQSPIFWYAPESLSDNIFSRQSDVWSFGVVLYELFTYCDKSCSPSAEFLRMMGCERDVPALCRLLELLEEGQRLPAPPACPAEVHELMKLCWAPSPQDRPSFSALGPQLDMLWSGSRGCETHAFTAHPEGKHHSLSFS
Human Jak2 kinase domain, sequence (O60674 808-1132): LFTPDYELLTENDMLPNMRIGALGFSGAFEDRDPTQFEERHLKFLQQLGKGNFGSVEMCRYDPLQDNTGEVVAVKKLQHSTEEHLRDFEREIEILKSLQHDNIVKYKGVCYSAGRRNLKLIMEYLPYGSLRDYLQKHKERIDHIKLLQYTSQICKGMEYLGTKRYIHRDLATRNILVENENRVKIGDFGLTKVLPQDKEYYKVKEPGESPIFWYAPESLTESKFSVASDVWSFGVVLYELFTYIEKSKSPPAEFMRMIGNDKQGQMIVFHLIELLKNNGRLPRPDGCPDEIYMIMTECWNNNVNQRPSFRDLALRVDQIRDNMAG
TrkA (histidine-tagged recombinant human TrkA, cytoplasmic domain), sequence (P04629 440-796): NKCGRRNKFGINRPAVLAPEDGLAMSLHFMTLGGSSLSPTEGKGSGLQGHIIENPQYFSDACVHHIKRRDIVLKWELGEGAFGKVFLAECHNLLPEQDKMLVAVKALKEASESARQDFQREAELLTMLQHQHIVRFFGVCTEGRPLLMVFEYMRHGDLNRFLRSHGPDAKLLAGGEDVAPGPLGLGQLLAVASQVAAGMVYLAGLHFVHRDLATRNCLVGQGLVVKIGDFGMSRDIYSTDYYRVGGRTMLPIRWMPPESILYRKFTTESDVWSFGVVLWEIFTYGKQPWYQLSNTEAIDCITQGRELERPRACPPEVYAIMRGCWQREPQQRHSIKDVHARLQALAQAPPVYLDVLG

Structure (SMILES)	IC50 [1]	IC50 [2]	IC50 (Human Jak2 kinase domain; [4])	IC50 (Human Jak2 kinase domain; Table 2, read-out: Jak2 IC50)	IC50 [3, 5]	IC50 ([3]; Table 2, read-out: TrkA IC50)	IC50 (Human Tyk2 kinase domain)
O=C(NC1CC1)c1cnn2ccc(N3CCC[C@@H]3c3cncc(F)c3)nc12 [Example 52, (R)—N-cyclopropyl-5-(2-(5-fluoropyridin-3-yl)pyrrolidin-1-yl)pyrazolo[1,5-a]pyrimidine-3-carboxamide]	> 1000 nM	> 1000 nM	> 1000 nM	> 1000 nM	7.4 nM	7.4 nM	> 1000 nM
CC1(NC(=O)c2cnn3ccc(N4CCC[C@@H]4c4cncc(F)c4)nc23)CC1 [Example 91, (R)-5-(2-(5-fluoropyridin-3-yl)pyrrolidin-1-yl)-N-(1-methylcyclopropyl)pyrazolo[1,5-a]pyrimidine-3-carboxamide]	> 1000 nM	> 1000 nM	> 1000 nM	> 1000 nM	3.2 nM	3.2 nM	> 1000 nM
CC(C)NC(=O)c1cnn2ccc(N3CCC[C@@H]3c3cncc(F)c3)nc12 [Example 93, (R)-5-(2-(5-fluoropyridin-3-yl)pyrrolidin-1-yl)-N-isopropylpyrazolo[1,5-a]pyrimidine-3-carboxamide]	> 1000 nM	> 1000 nM	> 1000 nM	> 1000 nM	5.1 nM	5.1 nM	> 1000 nM
O=C(NC1(C(F)(F)F)CC1)c1cnn2ccc(N3CCC[C@@H]3c3cncc(F)c3)nc12 [Example 98, (R)-5-(2-(5-fluoropyridin-3-yl)pyrrolidin-1-yl)-N-(1-(trifluoromethyl)cyclopropyl)pyrazolo[1,5-a]pyrimidine-3-carboxamide]	> 1000 nM	> 1000 nM	> 1000 nM	> 1000 nM	9 nM	9 nM	> 1000 nM
O=C(NCC1CC1)c1cnn2ccc(N3CCC[C@@H]3c3cncc(F)c3)nc12 [Example 106, (R)-N-(cyclopropylmethyl)-5-(2-(5-fluoropyridin-3-yl)pyrrolidin-1-yl)pyrazolo[1,5-a]pyrimidine-3-carboxamide]	> 1000 nM	> 1000 nM	> 1000 nM	> 1000 nM	7.7 nM	7.6 nM	> 1000 nM
CNC(=O)c1cnn2ccc(N3CCC[C@@H]3c3cncc(F)c3)nc12 [Example 114, (R)-5-(2-(5-fluoropyridin-3-yl)pyrrolidin-1-yl)-N-methylpyrazolo[1,5-a]pyrimidine-3-carboxamide]	> 1000 nM	> 1000 nM	> 1000 nM	> 1000 nM	29.9 nM	17.1 nM	> 1000 nM
C[C@@H](NC(=O)c1cnn2ccc(N3CCC[C@@H]3c3cncc(F)c3)nc12)C1CC1 [Example 123, N-((R)-1-cyclopropylethyl)-5-((R)-2-(5-fluoropyridin-3-yl)pyrrolidin-1-yl)pyrazolo[1,5-a]pyrimidine-3-carboxamide]	> 1000 nM	> 1000 nM	> 1000 nM	> 1000 nM	6.4 nM	6.3 nM	> 1000 nM
C[C@H](NC(=O)c1cnn2ccc(N3CCC[C@@H]3c3cncc(F)c3)nc12)C1CC1 [Example 124, N-((S)-1-cyclopropylethyl)-5-((R)-2-(5-fluoropyridin-3-yl)pyrrolidin-1-yl)pyrazolo[1,5-a]pyrimidine-3-carboxamide]	> 1000 nM	> 1000 nM	759 nM	759 nM	2.9 nM	2.9 nM	> 1000 nM
Cc1ncc(F)cc1[C@H]1CCCN1c1ccn2ncc(C(=O)NC3(C)CC3)c2n1 [Example 190, (R)-5-(2-(5-fluoro-2-methylpyridin-3-yl)pyrrolidin-1-yl)-N-(1-methylcyclopropyl)pyrazolo[1,5-a]pyrimidine-3-carboxamide]	> 1000 nM	> 1000 nM	> 1000 nM	> 1000 nM	2.4 nM	2.4 nM	> 1000 nM
